Measurements from US20050112573A1, “Method of detecting toxic substance” (priority 2001, published 2005).

Tested on: yeast genes (level of expressed mRNA)
Experiment: DNA chip analysis of expressed mRNA of yeast genes after 2 h culture with a toxic chemical substance
Type: cell-based, Saccharomyces cerevisiae S288C
Method: Yeast (Saccharomyces cerevtisiae S288C (α SUC2mal mel gap2 CUP1)) were cultured at 25° C. on YPD medium (yeast extract 1%, polypepton 2%, glucose 2%). One of toxic chemical substances was added to the cell at logarithmic growth phase, and the cell was further cultured for two hours. Cell was cultured without any chemical substance in the same condition, and was used as control. Concentrations of the chemical substances were defined to inhibit the growth of the yeast but not lead to death.
After the completion of cultivation, the culture was centrifuged to collect the cells. To the cells, sodium acetate buffer (50 mM sodium acetate, 10 mM EDTA, 1% SDS) was added, and the mixture was shaken at 65° C. for five minutes, followed by returning to room temperature, and obtaining the supernatant, which procedure was repeated two times. To the supernatant, ½ amount of a solution of phenol/chloroform was added, and the mixture was centrifuged to give a supernatant, which was added with an equal amount of chloroform, and the mixture was centrifuged to give a supernatant. To the supernatant, an equal amount of isopropanol containing 0.3 M sodium acetate was added, and the mixture was allowed to stand at room temperature for 30 minutes, after which the mixture was centrifuged to give a sediment of the whole RNAs. Seventy % ethanol was added to the sediment, and the mixture was again centrifuged to give a sediment, which was then dried and dissolved in water. mRNA was isolated from the whole RNAs as followings. In view of the fact that a poly A chain is attached to the 3′ terminus of mRNA, a polynucleotide having a poly T structure which was immobilized on the surface of latex beads was used to trap the mRNA, and then the mRNA was washed and eluted with spine column (Oligotex-dT30<Super>mRNA Purification Kit, Takara). Reverse transcription of the mRNA was conducted with a reverse transcriptase (Super Script II Reverse Transcriptase; catalogue No. 18064-014, GibcoBRL) using fluorescence-labeled nucleotides to give cDNAs that were introduced with Cy3-dUTP or Cy5-dUTP during the reverse transcription.
The labeled cDNAs were dissolved in TE buffer (10 mM Tris-HCl/1 mM EDTA, pH8.0), and the solution was dropped on the DNA chip containing the whole genes of yeast (DNA Chip Research Inc. Japan) so that the cDNAs were hybridized on the DNA chip at 65° C. for over 12 hours. The fluoresces intensity of the DNA chip was read with a scanner, and the ratio relative to the fluorescence intensity resulting from the absence of chemical substance was estimated as the following, which is shown in Tables 1 to 9: [formula]
In the Tables, “Intensity” indicated in the rightmost column is a value of the level of expressed mRNA of each gene in control cells as divided by the average level of the expressions of the whole genes.

COc1cc(CNC(=O)CCCCC=CC(C)C)ccc1O [(12), 8-methyl-N-vanillyl-6-nonenamide]
level of expressed mRNA in the presence of chemical substance/in its absence (gene YAL012W): 1.1 | The level of expressed mRNA in the presence of chemical substance/absence: YAL014C (gene YAL014C): 1.2 | The level of expressed mRNA in the presence of chemical substance/absence: YAL017W (gene YAL017W): 1.0 | The level of expressed mRNA in the presence of chemical substance/absence: YAL018C (gene YAL018C): 0.9 | level of expressed mRNA in the presence of chemical substance/in its absence (gene YAL038W): 1.2 | level of expressed mRNA in the presence of chemical substance/in its absence (gene YAL044C): 0.6 | The level of expressed mRNA in the presence of chemical substance/absence: YAL049C (gene YAL049C): 1.1 | level of expressed mRNA in the presence of chemical substance/in its absence (gene YAL054C): 1.0 | The level of expressed mRNA in the presence of chemical substance/absence: YAR047C (gene YAR047C): 0.9 | The level of expressed mRNA in the presence of chemical substance/absence: YAR064W (gene YAR064W): 0.8 | level of expressed mRNA in the presence of chemical substance/in its absence (gene YAR071W): 2.0 | level of expressed mRNA in the presence of chemical substance/in its absence (gene YBL001C): 0.7 | The level of expressed mRNA in the presence of chemical substance/absence: YBL044W (gene YBL044W): 0.9 | The level of expressed mRNA in the presence of chemical substance/absence: YBL100C (gene YBL100C): 0.7 | The level of expressed mRNA in the presence of chemical substance/absence: YBR012C (gene YBR012C): 1.0 | The level of expressed mRNA in the presence of chemical substance/absence: YBR013C (gene YBR013C): 1.2 | level of expressed mRNA in the presence of chemical substance/in its absence (gene YBR014C): 0.6 | level of expressed mRNA in the presence of chemical substance/in its absence (gene YBR023C): 0.8 | level of expressed mRNA in the presence of chemical substance/in its absence (gene YBR029C): 1.3 | level of expressed mRNA in the presence of chemical substance/in its absence (gene YBR035C): 1.2 | level of expressed mRNA in the presence of chemical substance/in its absence (gene YBR050C): 1.0 | The level of expressed mRNA in the presence of chemical substance/absence: YBR051W (gene YBR051W): 0.7 | The level of expressed mRNA in the presence of chemical substance/absence: YBR063C (gene YBR063C): 1.1 | The level of expressed mRNA in the presence of chemical substance/absence: YBR066C (gene YBR066C): 0.7 | level of expressed mRNA in the presence of chemical substance/in its absence (gene YBR068C): 0.8 | level of expressed mRNA in the presence of chemical substance/in its absence (gene YBR111C): 1.2 | The level of expressed mRNA in the presence of chemical substance/absence: YBR124W (gene YBR124W): 0.9 | The level of expressed mRNA in the presence of chemical substance/absence: YBR129C (gene YBR129C): 1.0 | level of expressed mRNA in the presence of chemical substance/in its absence (gene YBR145W): 1.0 | The level of expressed mRNA in the presence of chemical substance/absence: YBR162C (gene YBR162C): 0.7 | level of expressed mRNA in the presence of chemical substance/in its absence (gene YBR183W): 1.2 | level of expressed mRNA in the presence of chemical substance/in its absence (gene YBR222C): 0.9 | The level of expressed mRNA in the presence of chemical substance/absence: YBR255W (gene YBR255W): 0.7 | The level of expressed mRNA in the presence of chemical substance/absence: YBR281C (gene YBR281C): 0.5 | The level of expressed mRNA in the presence of chemical substance/absence: YBR287W (gene YBR287W): 1.2 | level of expressed mRNA in the presence of chemical substance/in its absence (gene YBR299W): 1.2 | level of expressed mRNA in the presence of chemical substance/in its absence (gene YCL009C): 1.7 | The level of expressed mRNA in the presence of chemical substance/absence: YCL044C (gene YCL044C): 0.9 | The level of expressed mRNA in the presence of chemical substance/absence: YCL056C (gene YCL056C): 1.0 | level of expressed mRNA in the presence of chemical substance/in its absence (gene YCL064C): 0.7 | The level of expressed mRNA in the presence of chemical substance/absence: YCR007C (gene YCR007C): 0.8 | level of expressed mRNA in the presence of chemical substance/in its absence (gene YCR037C): 0.7 | level of expressed mRNA in the presence of chemical substance/in its absence (gene YCR048W): 0.9 | level of expressed mRNA in the presence of chemical substance/in its absence (gene YCR098C): 1.3 | level of expressed mRNA in the presence of chemical substance/in its absence (gene YDL022W): 1.2 | The level of expressed mRNA in the presence of chemical substance/absence: YDL046W (gene YDL046W): 1.0 | The level of expressed mRNA in the presence of chemical substance/absence: YDL089W (gene YDL089W): 0.9 | The level of expressed mRNA in the presence of chemical substance/absence: YDL173W (gene YDL173W): 1.1 | The level of expressed mRNA in the presence of chemical substance/absence: YDL193W (gene YDL193W): 1.1 | The level of expressed mRNA in the presence of chemical substance/absence: YDL233W (gene YDL233W): 0.9 | level of expressed mRNA in the presence of chemical substance/in its absence (gene YDR009W): 1.0 | level of expressed mRNA in the presence of chemical substance/in its absence (gene YDR019C): 0.7 | The level of expressed mRNA in the presence of chemical substance/absence: YDR071C (gene YDR071C): 0.9 | The level of expressed mRNA in the presence of chemical substance/absence: YDR078C (gene YDR078C): 0.7 | The level of expressed mRNA in the presence of chemical substance/absence: YDR090C (gene YDR090C): 0.6 | The level of expressed mRNA in the presence of chemical substance/absence: YDR109C (gene YDR109C): 1.0 | The level of expressed mRNA in the presence of chemical substance/absence: YDR128W (gene YDR128W): 0.6
